Test results published in US20150344540A1, “NOVEL GLP-1 RECEPTOR AGONISTS WITH CHOLESTEROL EFFLUX ACTIVITY” (NOVO NORDISK A/S, priority 2012, published 2015).
pEC50: −log10 of the molar value. Read-outs that look alike come from different tables or passages of the source. Where a SMILES comes first, the peptide text is derived from it. [ ]: non-standard residue; d: D form. Aib = CC(C)(N)C(=O)O

Assays:
human GLP-1 receptor = human GLP-1 receptor (Homo sapiens, UniProt P43220); experiment: Functional GLP-1 receptor assay, in vitro potency (CRE luciferase; whole cells); format: cell-based; settings: BHK cells expressing human GLP-1 receptor
Sequence of human GLP-1 receptor (P43220 24-463): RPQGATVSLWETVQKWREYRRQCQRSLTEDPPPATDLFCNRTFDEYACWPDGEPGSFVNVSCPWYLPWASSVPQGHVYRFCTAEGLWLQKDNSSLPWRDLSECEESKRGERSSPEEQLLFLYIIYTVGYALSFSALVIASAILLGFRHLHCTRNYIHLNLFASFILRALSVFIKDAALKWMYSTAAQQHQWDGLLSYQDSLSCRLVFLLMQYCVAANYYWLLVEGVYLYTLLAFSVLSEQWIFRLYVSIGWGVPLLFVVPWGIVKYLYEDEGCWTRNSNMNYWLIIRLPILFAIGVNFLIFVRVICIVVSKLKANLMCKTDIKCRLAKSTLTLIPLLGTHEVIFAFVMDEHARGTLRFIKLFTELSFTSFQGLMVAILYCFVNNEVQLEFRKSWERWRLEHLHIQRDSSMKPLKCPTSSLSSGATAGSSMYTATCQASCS

[1] = Pharmacokinetics in mini-pigs after i.v. administration; settings: female, Göttingen, minipig, iv, 5 nmol/kg
Text: The aim of the study is to assess the pharmacokinetic properties of the compounds of the invention, in mini-pigs.
Göttingen mini-pigs female, 15-20 kg, purchased from Ellegaard Mini-pigs, Denmark, were housed in the Animal Unit, Novo Nordisk A/S and were kept and handled according to normal procedure in the Animal Unit. After minimum 2 weeks of acclimatization two permanent central venous catheters were implemented in vena cava caudalis in each animal. After surgery the animals were in their normal individual pens during the pharmacokinetic experiments.
Intravenous injections were given through the central short catheter, which was flushed with min 10 ml of sterile saline post administration. The test substance was dosed at 5 nmol/kg, N=3, in a volume of 0.05 ml/kg.
On day 1 the catheters are coupled to extension tubes, which will be removed at the end of day 1.
Samples were kept on wet ice until centrifugation (10 min, 4° C., 1942 g). Afterwards, plasma (min. 100 μl) was transferred immediately to Micronic tubes and kept at −20° C. until analysis. The plasma samples were analysed by an immunoaasay described below.
The plasma concentrations of the peptides with intact N-terminus were determined using a Luminescence Oxygen Chanelling Immuno-assay (LOCI). The donor beads were coated with streptavidin, while acceptor beads were conjugated with a monoclonal antibody recognizing a mid-/C-terminal epitope of the peptide. The other monoclonal antibody, specific for the N-terminus, was biotinylated. The three reactants were combined with the analyte and formed a two-sited immuno-complex. Illumination of the complex released singlet oxygen atoms from the donor beads, which were channeled into the acceptor beads and triggered chemi-luminescence which was measured in an Envision plate reader. The amount of light was proportional to the concentration of the compound.
Plasma concentration-time profiles was analysed by a non-compartmental pharmacokinetics analysis using Phoenix (Pharsight Inc., Mountain View, Calif., USA). Calculations were performed using individual concentration-time values from each animal.

[2] = tested on: Mouse monocyte/macrophage cell line, RAW 264.7; experiment: Cholesterol efflux assay (3H-cholesterol, macrophage cell line); format: cell-based; settings: RAW 264.7, 4 hrs incubation, 0.1% human serum albumin; for 4 h Cholesterol Efflux Emax: ABCA1-mediated efflux
[3] = GLP1R CRE luc 1% HSA EC50 Mean Value, 1% HSA
[4] = 0% HSA, read-out: GLP1R CRE luc 0% HSA EC50 Mean Value
[5] = plasma, T1/2 Mean Value, Göttingen mini-pigs, N=3

Row | Structure (SMILES) | pEC50 (human GLP-1 receptor; [3]) | pEC50 (human GLP-1 receptor; [4]) | C0 ([1]; plasma) | Vd ([1]; plasma) | clearance ([1]; plasma) | half-life [1, 5] | pEC50 (human GLP-1 receptor; GLP1R CRE luc 0% HSA EC50 Mean Value, 0% HSA) | C0 ([1]; in vivo) | Vd ([1]; in vivo) | clearance ([1]; in vivo) | half-life ([1]; in vivo) | 4 h Cholesterol Efflux Emax [2] | pEC50 ([2]; read-out: 4 h Cholesterol Efflux EC50, ABCA1-mediated efflux (CPT-cAMP induced minus non-induced))
1 | CC(C)C[C@H](NC(=O)[C@H](Cc1ccccc1)NC(=O)[C@H](CCC(=O)O)NC(=O)[C@H](CCCCN)NC(=O)C(C)(C)NC(=O)[C@H](CCCCN)NC(=O)[C@H](CCC(=O)O)NC(=O)[C@H](CC(C)C)NC(=O)[C@H](CC(C)C)NC(=O)[C@H](Cc1c[nH]c2ccccc12)NC(=O)[C@H](CCC(N)=O)NC(=O)[C@@H](NC(=O)[C@H](Cc1ccccc1)NC(=O)[C@H](CCC(=O)O)NC(=O)[C@H](CCCNC(=N)N)NC(=O)[C@H](C)NC(=O)[C@H](C)NC(=O)[C@H](CCCCN)NC(=O)[C@H](CO)NC(=O)[C@H](CC(=O)O)NC(=O)[C@H](CC(C)C)NC(=O)[C@H](Cc1ccc(O)cc1)NC(=O)[C@H](CCCCN)NC(=O)[C@H](CO)NC(=O)[C@H](Cc1ccc(O)cc1)NC(=O)[C@H](CC(=O)O)NC(=O)[C@H](CO)NC(=O)[C@@H](NC(=O)[C@H](Cc1ccccc1)NC(=O)[C@@H](NC(=O)CNC(=O)[C@H](CCC(N)=O)NC(=O)C(C)(C)NC(=O)[C@@H](N)Cc1c[nH]cn1)[C@@H](C)O)[C@@H](C)O)C(C)C)C(N)=O [Compound 26] (H-H[Aib]QGTFTSDYSKYLDSKAAREFVQWLLEK[Aib]KEFL-NH2) | 9.82 |  |  |  |  |  | 9.41 | 123 nM | 0.0549 L/kg | 5.21 mL/h/kg | 7.3 h | 87% | 6.70
2 | CC[C@H](C)[C@H](NC(=O)[C@H](Cc1ccccc1)NC(=O)[C@H](CCC(=O)O)NC(=O)[C@H](CCCCN)NC(=O)[C@H](C)NC(=O)[C@H](C)NC(=O)[C@H](CCC(N)=O)NC(=O)CNC(=O)[C@H](CCC(=O)O)NC(=O)[C@H](CC(C)C)NC(=O)[C@H](Cc1ccc(O)cc1)NC(=O)[C@H](CO)NC(=O)[C@H](CO)NC(=O)[C@@H](NC(=O)[C@H](CC(=O)O)NC(=O)[C@H](CO)NC(=O)[C@@H](NC(=O)[C@H](Cc1ccccc1)NC(=O)[C@@H](NC(=O)CNC(=O)[C@H](CCC(=O)O)NC(=O)C(C)(C)NC(=O)[C@@H](N)Cc1c[nH]cn1)[C@@H](C)O)[C@@H](C)O)C(C)C)C(=O)N[C@@H](C)C(=O)N[C@@H](Cc1c[nH]c2ccccc12)C(=O)N[C@@H](CC(C)C)C(=O)N[C@H](C(=O)N[C@@H](CCC(=O)O)C(=O)N[C@@H](CCCCN)C(=O)NC(C)(C)C(=O)N[C@@H](CCCCN)C(=O)N[C@@H](CCC(=O)O)C(=O)N[C@@H](Cc1ccccc1)C(=O)N[C@@H](CC(C)C)C(N)=O)C(C)C [Compound 45, [Aib8,Glu34,Lys35,Aib36,Lys37]-GLP-1-(7-37)-peptidyl-Glu-Phe-Leu amide] | 10.38 | 9.97 | 147 nM | 0.154 L/kg | 2.39 mL/h/kg | 44.9 h |  |  |  |  |  | 97% | 
3 | CC[C@H](C)[C@H](NC(=O)[C@H](Cc1ccccc1)NC(=O)[C@H](CCC(=O)O)NC(=O)[C@H](CCCCN)NC(=O)[C@@H](NC(=O)[C@H](C)NC(=O)[C@H](CCC(=O)O)NC(=O)CNC(=O)[C@H](CCC(=O)O)NC(=O)[C@H](CC(C)C)NC(=O)[C@H](Cc1ccc(O)cc1)NC(=O)[C@H](CO)NC(=O)[C@H](CO)NC(=O)[C@@H](NC(=O)[C@H](CC(=O)O)NC(=O)[C@H](CO)NC(=O)[C@@H](NC(=O)[C@H](Cc1ccccc1)NC(=O)[C@@H](NC(=O)CNC(=O)[C@H](CCC(=O)O)NC(=O)C(C)(C)NC(=O)[C@@H](N)Cc1c[nH]cn1)[C@@H](C)O)[C@@H](C)O)C(C)C)C(C)C)C(=O)N[C@@H](C)C(=O)N[C@@H](Cc1c[nH]c2ccccc12)C(=O)N[C@@H](CC(C)C)C(=O)N[C@H](C(=O)N[C@@H](CCC(=O)O)C(=O)N[C@@H](CCCCN)C(=O)NC(C)(C)C(=O)N[C@@H](CCCCN)C(=O)N[C@@H](CCC(=O)O)C(=O)N[C@@H](Cc1ccccc1)C(N)=O)C(C)C [Compound 62, [Aib8,Glu23,Val25,Glu34,Lys35,Aib36,Lys37]-GLP-1-(7-37)-peptidyl-Glu-Phe amide] (H-H[Aib]EGTFTSDVSSYLEGEAVKEFIAWLVEK[Aib]KEF-NH2) | 10.82 | 10.66 | 50.6 nM | 0.0654 L/kg | 2.66 mL/h/kg | 16.7 h |  |  |  |  |  | 111% | 

Continued by rising pEC50 (human GLP-1 receptor; [3]), values first:

Row | pEC50 (human GLP-1 receptor; [3]) | pEC50 (human GLP-1 receptor; [4]) | C0 ([1]; plasma) | Vd ([1]; plasma) | clearance ([1]; plasma) | half-life [1, 5] | Structure (SMILES) | pEC50 (human GLP-1 receptor; GLP1R CRE luc 0% HSA EC50 Mean Value, 0% HSA) | C0 ([1]; in vivo) | Vd ([1]; in vivo) | clearance ([1]; in vivo) | half-life ([1]; in vivo) | 4 h Cholesterol Efflux Emax [2] | pEC50 ([2]; read-out: 4 h Cholesterol Efflux EC50, ABCA1-mediated efflux (CPT-cAMP induced minus non-induced))
4 | 10.82 | 10.35 | 85.5 nM | 0.0743 L/kg | 6.3 mL/h/kg | 8.3 h | CC[C@H](C)[C@H](NC(=O)[C@H](Cc1ccccc1)NC(=O)[C@H](CCC(=O)O)NC(=O)[C@H](CCCCN)NC(=O)[C@H](C)NC(=O)[C@H](C)NC(=O)[C@H](CCC(N)=O)NC(=O)CNC(=O)[C@H](CCC(=O)O)NC(=O)[C@H](CC(C)C)NC(=O)[C@H](Cc1ccc(O)cc1)NC(=O)[C@H](CO)NC(=O)[C@H](CO)NC(=O)[C@@H](NC(=O)[C@H](CC(=O)O)NC(=O)[C@H](CO)NC(=O)[C@@H](NC(=O)[C@H](Cc1ccccc1)NC(=O)[C@@H](NC(=O)CNC(=O)[C@H](CCC(=O)O)NC(=O)C(C)(C)NC(=O)[C@@H](N)Cc1c[nH]cn1)[C@@H](C)O)[C@@H](C)O)C(C)C)C(=O)N[C@@H](C)C(=O)N[C@@H](Cc1c[nH]c2ccccc12)C(=O)N[C@@H](CC(C)C)C(=O)N[C@H](C(=O)N[C@@H](CCCCN)C(=O)N[C@@H](CCCCN)C(=O)NC(C)(C)C(=O)NCC(=O)N[C@@H](CCC(=O)O)C(=O)N[C@@H](Cc1ccccc1)C(=O)N[C@@H](CC(C)C)C(N)=O)C(C)C [Compound 48] |  |  |  |  |  | 71% | 
5 | 10.89 | 10.41 | 108 nM | 0.0769 L/kg | 1.04 mL/h/kg | 51.3 h | CC[C@H](C)[C@H](NC(=O)[C@H](Cc1ccccc1)NC(=O)[C@H](CCC(=O)O)NC(=O)[C@H](CCCCN)NC(=O)[C@@H](NC(=O)[C@H](C)NC(=O)[C@H](CCC(=O)O)NC(=O)CNC(=O)[C@H](CCC(=O)O)NC(=O)[C@H](CC(C)C)NC(=O)[C@H](Cc1ccc(O)cc1)NC(=O)[C@H](CO)NC(=O)[C@H](CO)NC(=O)[C@@H](NC(=O)[C@H](CC(=O)O)NC(=O)[C@H](CO)NC(=O)[C@@H](NC(=O)[C@H](Cc1ccccc1)NC(=O)[C@@H](NC(=O)CNC(=O)[C@H](CCC(=O)O)NC(=O)C(C)(C)NC(=O)[C@@H](N)Cc1c[nH]cn1)[C@@H](C)O)[C@@H](C)O)C(C)C)C(C)C)C(=O)N[C@@H](C)C(=O)N[C@@H](Cc1c[nH]c2ccccc12)C(=O)N[C@@H](CC(C)C)C(=O)N[C@H](C(=O)N[C@@H](CCC(=O)O)C(=O)N[C@@H](CCCCN)C(=O)NC(C)(C)C(=O)NCC(=O)N[C@@H](CCC(=O)O)C(=O)N[C@@H](Cc1ccccc1)C(=O)N[C@@H](CC(C)C)C(N)=O)C(C)C [Compound 32] (H-H[Aib]EGTFTSDVSSYLEGEAVKEFIAWLVEK[Aib]GEFL-NH2) |  |  |  |  |  | 85% | 
